Assay results reported in patent US10863742B2, “Herbicide combinations” (Bayer CropScience Aktiengesellschaft, priority 2016, dated 2020).

Key:
Experiment in all cases: Greenhouse early post-emergence weed control trial
Assay type in all cases: in vivo
[1] = test system: Lolium rigidum (LOLRI); settings: 480 h, visual weed control 20 DAA, scale 0-100, early post-emergence BBCH 10-11, g ai/ha: diflufenican 50, pyroxasulfone 25, metribuzin 50, combination 50 + 25 + 50, read-out: % Efficacy against various weeds, LOLRI
Procedure: (§1) The following data are the results of a greenhouse investigation in which the herbicide combination according to the present invention was tested against various monocotyledonous and dicotyledonous weeds after an early-post emergence application (BBCH 10-11).
(§2) For this early post-emergent trial seeds of the above mentioned species were sown in 7 cm jiffy pots containing standard soil (14.7% sand, 19.9% clay, 65.4% silt and 1.8% organic matter) covered with 0,5 cm depth of sandy soil and lightly irrigated from above. The pots were placed in a glasshouse (with conditions of 16 hour day and 8 hour night, 21° C. day and 12° C. night and 60% relative humidity) and irrigated from above to allow the seeds to germinate and grow. Once they had reached the required growth stage BBCH 10-11 the propagated plants were treated with the herbicides. The herbicides were applied in a spray volume of 300 l water/ha using a flat fan nozzle XR 8001 at a pressure of 1.8 bar. After the application and air drying the pots were placed back into the glasshouse and allowed to grow on. The pots were irrigated via flood irrigation as required for good plant growth.
(§3) Visual percent of weed control (4 replicates) was rated 20 days after herbicide applications (DAA) on a scale of 0-100. A rating of 0 is defined as no control and 100 as complete control.
(§4) According to Colby synergistic effects of herbicidal active ingredients are indicated if the measured efficacy is higher than the expected one calculated according to his formula for 3-way mixtures: E=(A+B+C)−(A×B+A×C+B×C)/100+(A×B×C)/10000

[2] = test system: Pharbitis purpurea (PHBPU); settings: Ipomoea purpurea, 480 h; visual weed control 20 DAA, scale 0-100, early post-emergence BBCH 10-11; g ai/ha: diflufenican 50, pyroxasulfone 25, metribuzin 50, combination 50 + 25 + 50; read-out: % Efficacy against various weeds, PHBPU
Procedure: as §1, §2, §3, §4

[3] = test system: Matricaria inodora (MATIN); settings: Tripleurospermum inodorum, 480 h; visual weed control 20 DAA, scale 0-100, early post-emergence BBCH 10-11; g ai/ha: diflufenican 50, pyroxasulfone 25, metribuzin 50, combination 50 + 25 + 50; read-out: % Efficacy against various weeds, MATIN
Procedure: as §1, §2, §3, §4

[4] = test system: Lamium purpureum (LAMPU); settings: 480 h, visual weed control 20 DAA, scale 0-100, early post-emergence BBCH 10-11, g ai/ha: diflufenican 50, pyroxasulfone 25, metribuzin 50, combination 50 + 25 + 50, read-out: % Efficacy against various weeds, LAMPU
Procedure: as §1, §2, §3, §4

[5] = test system: Veronica persica (VERPE); settings: 480 h, visual weed control 20 DAA, scale 0-100, early post-emergence BBCH 10-11, g ai/ha: diflufenican 50, pyroxasulfone 25, metribuzin 50, combination 50 + 25 + 50, read-out: % Efficacy against various weeds, VERPE
Procedure: as §1, §2, §3, §4

[6] = test system: Polygonum convolvulus (POLCO); settings: Fallopia convolvulus, 480 h; visual weed control 20 DAA, scale 0-100, early post-emergence BBCH 10-11; g ai/ha: diflufenican 50, pyroxasulfone 25, metribuzin 50, combination 50 + 25 + 50; read-out: % Efficacy against various weeds, POLCO
Procedure: as §1, §2, §3, §4

SMILES	Emax [1]	Emax [2]	Emax [3]	Emax [4]	Emax [5]	Emax [6]
O=C(Nc1ccc(F)cc1F)c1cccnc1Oc1cccc(C(F)(F)F)c1 [Diflufenican, diflufenican]	2%	18%	1%	10%	18%	13%
Cn1nc(C(F)(F)F)c(CS(=O)(=O)C2=NOC(C)(C)C2)c1OC(F)F [Pyroxasulfon, pyroxasulfone]	29%	10%	5%	5%	5%	0%
CSc1nnc(C(C)(C)C)c(=O)n1N [Metribuzin, metribuzin]	6%	5%	59%	95%	70%	1%
